Data taken from the supplement of paper PMC11061612.

Experiments:
[1] = tested on: PC-14 (Lung Adenocarcinoma); assay: combination Emax (second highest fraction inhibited in the dose matrix, 72 h); higher = more inhibition; extreme values may be limits of the assay
Summary of the method: (§1)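 After 24 hours at 37°C and 5% CO2 in 1536-well plates, cells in DMEM/F12 or RPMI plus 10% FBS received two-drug dose matrices for 72 hours. Viability came from CellTiter-Glo 2.0 luminescence and was scaled as inhibition, anchored at 0 by vehicle wells and at 1 by blank wells. Combination Emax is taken as the second-highest inhibition in the matrix, and Bliss excess as the observed combination effect less EA + EB − EA·EB, with EA and EB the single-agent effects.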

[2] = tested on: SK-MM-2 (Plasma Cell Myeloma); assay: as above
Summary of the method: as §1

[3] = tested on: CHL-1 (Melanoma); assay: as above
Summary of the method: as §1

[4] = tested on: OV-90 (Ovarian Carcinoma); assay: as above
Summary of the method: as §1

[5] = tested on: EB-3 (Burkitt's Lymphoma); assay: as above
Summary of the method: as §1

[6] = tested on: Becker (Low Grade Glioma); assay: as above
Summary of the method: as §1

[7] = tested on: HCC-44 (Lung Adenocarcinoma); assay: as above
Summary of the method: as §1

[8] = tested on: COLO-684 (Endometrial Carcinoma); assay: as above
Summary of the method: as §1

[9] = tested on: LOUCY (T-Lymphoblastic Leukemia); assay: as above
Summary of the method: as §1

[10] = tested on: NCI-H1755 (Lung Adenocarcinoma); assay: as above
Summary of the method: as §1

[11] = tested on: FLO-1 (Esophageal Adenocarcinoma); assay: as above
Summary of the method: as §1

[12] = tested on: NKM-1 (Acute Myeloid Leukemia); assay: as above
Summary of the method: as §1

[13] = tested on: LAMA-84 (Chronic Myelogenous Leukemia); assay: as above
Summary of the method: as §1

[14] = tested on: NCI-H810 (Non-Small Cell Lung Carcinoma); assay: as above
Summary of the method: as §1

[15] = tested on: KYM-1 (Rhabdomyosarcoma); assay: as above
Summary of the method: as §1

[16] = tested on: PANC-02-03 (Pancreatic Carcinoma); assay: as above
Summary of the method: as §1

[17] = tested on: CML-T1 (Chronic Myelogenous Leukemia); assay: as above
Summary of the method: as §1

[18] = tested on: SW684 (Other Solid Carcinomas); assay: as above
Summary of the method: as §1

[19] = tested on: KYSE-70 (Esophageal Squamous Cell Carcinoma); assay: as above
Summary of the method: as §1

[20] = tested on: RMG-I (Ovarian Carcinoma); assay: as above
Summary of the method: as §1

[21] = tested on: PC-14 (Lung Adenocarcinoma); assay: Bliss excess, mean over the matrix (fraction); higher = more synergy
Summary of the method: as §1

[22] = tested on: SK-MM-2 (Plasma Cell Myeloma); assay: as above
Summary of the method: as §1

[23] = tested on: CHL-1 (Melanoma); assay: as above
Summary of the method: as §1

[24] = tested on: OV-90 (Ovarian Carcinoma); assay: as above
Summary of the method: as §1

[25] = tested on: EB-3 (Burkitt's Lymphoma); assay: as above
Summary of the method: as §1

[26] = tested on: Becker (Low Grade Glioma); assay: as above
Summary of the method: as §1

[27] = tested on: HCC-44 (Lung Adenocarcinoma); assay: as above
Summary of the method: as §1

[28] = tested on: COLO-684 (Endometrial Carcinoma); assay: as above
Summary of the method: as §1

[29] = tested on: LOUCY (T-Lymphoblastic Leukemia); assay: as above
Summary of the method: as §1

[30] = tested on: NCI-H1755 (Lung Adenocarcinoma); assay: as above
Summary of the method: as §1

[31] = tested on: FLO-1 (Esophageal Adenocarcinoma); assay: as above
Summary of the method: as §1

[32] = tested on: NKM-1 (Acute Myeloid Leukemia); assay: as above
Summary of the method: as §1

[33] = tested on: LAMA-84 (Chronic Myelogenous Leukemia); assay: as above
Summary of the method: as §1

[34] = tested on: NCI-H810 (Non-Small Cell Lung Carcinoma); assay: as above
Summary of the method: as §1

[35] = tested on: KYM-1 (Rhabdomyosarcoma); assay: as above
Summary of the method: as §1

[36] = tested on: PANC-02-03 (Pancreatic Carcinoma); assay: as above
Summary of the method: as §1

[37] = tested on: CML-T1 (Chronic Myelogenous Leukemia); assay: as above
Summary of the method: as §1

[38] = tested on: SW684 (Other Solid Carcinomas); assay: as above
Summary of the method: as §1

[39] = tested on: KYSE-70 (Esophageal Squamous Cell Carcinoma); assay: as above
Summary of the method: as §1

[40] = tested on: RMG-I (Ovarian Carcinoma); assay: as above
Summary of the method: as §1
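Throughout, for Bliss excess, mean over the matrix: after 72 h of two-drug dosing.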

Compound	combination Emax [1]	combination Emax [2]	combination Emax [3]	combination Emax [4]	combination Emax [5]	combination Emax [6]	combination Emax [7]	combination Emax [8]	combination Emax [9]	combination Emax [10]	combination Emax [11]	combination Emax [12]	combination Emax [13]	combination Emax [14]	combination Emax [15]	combination Emax [16]	combination Emax [17]	combination Emax [18]	combination Emax [19]	combination Emax [20]	Bliss excess [21]	Bliss excess [22]	Bliss excess [23]	Bliss excess [24]	Bliss excess [25]	Bliss excess [26]	Bliss excess [27]	Bliss excess [28]	Bliss excess [29]	Bliss excess [30]	Bliss excess [31]	Bliss excess [32]	Bliss excess [33]	Bliss excess [34]	Bliss excess [35]	Bliss excess [36]	Bliss excess [37]	Bliss excess [38]	Bliss excess [39]	Bliss excess [40]
O=C(c1cc(Cc2n[nH]c(=O)c3ccccc23)ccc1F)N1CCN(C(=O)C2CC2)CC1 [Olaparib] + COc1nnc2ccc(N3CCC(c4ccc(OCCN5CCN(C)C(=O)[C@H]5C)cc4)CC3)nn12 [AZD5153] (first compound max 10 µM, 7x7, partner max 1 µM)	0.431	0.875	0.418	0.402	0.694	0.397	0.593	0.564	0.749	0.498	0.575	0.898	0.8	0.671	0.862	0.591	0.852	0.415	0.389	0.536	-0.0284	-0.032	-0.0554	-0.0144	-0.0549	-0.0004	-0.0341	-0.0132	0.0304	-0.0453	-0.0174	-0.0231	-0.0335	-0.0406	-0.0479	-0.0683	-0.0113	-0.0857	-0.0305	-0.0288
C[C@@H](Nc1cc(F)cc(F)c1)c1cc(C(=O)N(C)C)cc2c(=O)cc(N3CCOCC3)oc12 [AZD8186] + C1CN(CCC1(C(=O)N[C@@H](CCO)C2=CC=C(C=C2)Cl)N)C3=NC=NC4=C3C=CN4 [AZD5363] (first compound max 10 µM, 7x7, partner max 10 µM)	0.399	0.202	0.433	0.208	0.324	0.646	0.609	0.615	0.494	0.642	0.43	0.615	0.198	0.17	0.4	0.237	0.53	0.572	0.233	0.401	0.0006	-0.0255	-0.0392	-0.0556	-0.0203	0.0295	-0.0319	-0.0839	0.0819	-0.0436	-0.0114	-0.0454	-0.0192	-0.099	-0.0245	-0.0364	-0.0629	-0.0408	-0.0493	-0.0317
Cc1cc2ncnn2cc1Nc1ncc2c(n1)n(C1CCOCC1)c(=O)n2C [AZD7648] + COc1cc([C@@H]2c3cc4c(cc3[C@@H](O[C@@H]3O[C@@H]5CO[C@@H](C)O[C@H]5[C@H](O)[C@H]3O)[C@H]3COC(=O)[C@H]23)OCO4)cc(OC)c1O [Etoposide] (first compound max 10 µM, 7x7, partner max 10 µM)	0.757	0.437	0.82	0.399	0.942	0.748	0.809	0.497	0.968	0.486	0.85	0.976	0.948	0.598	0.927	0.378	1	0.428	0.168	0.386	0.097	0.0378	0.0767	-0.0525	0.0374	0.096	0.0009	-0.0174	0.0421	0.0418	0.0863	0.106	0.154	-0.079	0.119	0.0386	0.0779	-0.0208	-0.0437	0.01
Cc1c2c(nn1C)CSCc1cc(n(C)n1)CSc1cc(c3ccccc3c1)OCCCc1c(C(=O)O)n(C)c3c-2c(Cl)ccc13 [AZD5991] + Nc1ccn([C@@H]2O[C@H](CO)[C@@H](O)C2(F)F)c(=O)n1 [Gemcitabine] (first compound max 1 µM, 7x7, partner max 0.3 µM)	0.692	0.351	0.785	0.505	0.377	0.567	0.598	0.573	0.774	0.435	0.823	1	0.939	0.597	1	0.366	0.991	0.253	0.141	0.367	0.0171	-0.0172	0.0685	-0.0251	0.0273	-0.033	-0.0513	-0.0376	0.131	0.0224	-0.0134	-0.0275	0.0095	0.0467	0.0209	-0.053	-0.0219	-0.0767	-0.0423	-0.0592
